Active and inactive are the calls of the source. No rule for the calls is given here.
Test system: CCRIS mutagenicity, Ames/micronucleus/aberration tests
Test: CCRIS mutagenicity studies
[1] = Test System: AMES SALMONELLA TYPHIMURIUM, Strain/Indicator: TA98, Metabolic Activation: NONE, Method: PREINCUBATION
[2] = Test System: AMES SALMONELLA TYPHIMURIUM, Strain/Indicator: TA98, Metabolic Activation: NONE, Method: STANDARD PLATE
[3] = Test System: AMES SALMONELLA TYPHIMURIUM, Strain/Indicator: TA98, Metabolic Activation: RAT, LIVER, S-9, AROCLOR 1254, Method: STANDARD PLATE
[4] = Test System: AMES SALMONELLA TYPHIMURIUM, Strain/Indicator: TA100, Metabolic Activation: NONE, Method: STANDARD PLATE
[5] = Test System: AMES SALMONELLA TYPHIMURIUM, Strain/Indicator: TA100, Metabolic Activation: RAT, LIVER, S-9, AROCLOR 1254, Method: STANDARD PLATE
[6] = Test System: AMES SALMONELLA TYPHIMURIUM, Strain/Indicator: TA100, Metabolic Activation: NONE, Method: PREINCUBATION

Q: `COc1cccc2c1C(=O)c1c(O)c3c(c(O)c1C2=O)C[C@@](O)(C(C)=O)C[C@@H]3O[C@H]1C[C@H](N)[C@H](O)[C@H](C)O1` was tested. Which mutagenic call (End Point: In vitro micronucleus, Test System: Human lymphoblastoid TK6 cells, Metabolic Activation: None) did it give?
A: active; positive (p<0.001)

Q: What about the mutagenic call (Test System: AMES SALMONELLA TYPHIMURIUM, Strain/Indicator: GW257, Metabolic Activation: NONE, Method: STANDARD PLATE) of the same compound?
A: active; positive

Q: What about the mutagenic call (Test System: AMES SALMONELLA TYPHIMURIUM, Strain/Indicator: TA97, Metabolic Activation: NONE, Method: STANDARD PLATE) of the same compound?
A: inactive; negative

Q: And the mutagenic call [1]?
A: active; positive

Q: What about the mutagenic call [2] of the same compound?
A: active; positive

Q: What about the mutagenic call [3] of the same compound?
A: active; positive

Q: And the mutagenic call (Test System: AMES SALMONELLA TYPHIMURIUM, Strain/Indicator: TA98, Metabolic Activation: RAT, LIVER, S-9, KC500 OR PHENOBARBITAL, Method: LIQUID SUSPENSION)?
A: active; positive

Q: And the mutagenic call [4]?
A: active; positive

Q: What about the mutagenic call (Test System: AMES SALMONELLA TYPHIMURIUM, Strain/Indicator: TA100, Metabolic Activation: RAT, LIVER, S-9, KC500 OR PHENOBARBITAL, Method: LIQUID SUSPENSION) of the same compound?
A: active; positive

Q: And the mutagenic call (Test System: AMES SALMONELLA TYPHIMURIUM, Strain/Indicator: TA102, Metabolic Activation: NONE, Method: STANDARD PLATE)?
A: active; positive

Q: And the mutagenic call (Test System: AMES SALMONELLA TYPHIMURIUM, Strain/Indicator: TA104, Metabolic Activation: NONE, Method: STANDARD PLATE)?
A: inactive; negative

Q: What about the mutagenic call (Test System: AMES SALMONELLA TYPHIMURIUM, Strain/Indicator: TA1535, Metabolic Activation: NONE, Method: STANDARD PLATE) of the same compound?
A: inactive; negative

Q: What about the mutagenic call (Test System: AMES SALMONELLA TYPHIMURIUM, Strain/Indicator: TA1538, Metabolic Activation: NONE, Method: STANDARD PLATE) of the same compound?
A: active; positive

Q: What about the mutagenic call (Test System: AMES SALMONELLA TYPHIMURIUM, Strain/Indicator: TA1978/PKM101, Metabolic Activation: NONE, Method: STANDARD PLATE) of the same compound?
A: active; positive

Q: What about the mutagenic call (Test System: AMES SALMONELLA TYPHIMURIUM, Strain/Indicator: TA1978, Metabolic Activation: NONE, Method: STANDARD PLATE) of the same compound?
A: inactive; negative

Q: And the mutagenic call (Test System: AMES SALMONELLA TYPHIMURIUM, Strain/Indicator: TA2637, Metabolic Activation: NONE, Method: STANDARD PLATE)?
A: active; positive

Q: And the mutagenic call (Test System: AMES SALMONELLA TYPHIMURIUM, Strain/Indicator: TA2638, Metabolic Activation: NONE, Method: STANDARD PLATE)?
A: active; positive

Q: And the mutagenic call (Test System: CHINESE HAMSTER V-79, Strain/Indicator: V-79/6-THIOGUANINE, Metabolic Activation: NONE, Method: SUSPENSION/PLATE)?
A: inactive; negative

Q: What about the mutagenic call (Test System: CHINESE HAMSTER V-79, Strain/Indicator: V-79/6-THIOGUANINE, Metabolic Activation: RAT, LIVER, HOMOGENATE, Method: SUSPENSION/PLATE) of the same compound?
A: inactive; negative

Q: And the mutagenic call (Test System: CHINESE HAMSTER V-79, Strain/Indicator: V-79/8-AZAGUANINE, Metabolic Activation: NONE, Method: STANDARD PLATE)?
A: active; positive

Q: What about the mutagenic call (Test System: E. COLI, Strain/Indicator: WP2 (HCR), Metabolic Activation: NONE, Method: STANDARD PLATE) of the same compound?
A: inactive; negative

Q: What about the mutagenic call (Test System: E. COLI, Strain/Indicator: WP2 (PKM101), Metabolic Activation: NONE, Method: STANDARD PLATE) of the same compound?
A: active; positive

Q: And the mutagenic call (Test System: E. COLI, Strain/Indicator: WP2 UVRA (PKM101), Metabolic Activation: NONE, Method: STANDARD PLATE)?
A: active; positive

Q: What about the mutagenic call (Test System: UDS RAT HEPATOCYTES, Strain/Indicator: THY INCORP, Metabolic Activation: NONE, Method: AUTOMATIC COLONY COUNTER) of the same compound?
A: active; positive

Q: For `Oc1cc2c3c(cc4cccc5ccc1c3c54)-c1ccccc1-2`, which mutagenic call [5] is on record?
A: inactive; negative

Q: With `CC(C)C(=O)N(O)c1ccc(Cl)cc1` as the compound, how does the mutagenic call [2] read?
A: inactive; negative

Q: What about the mutagenic call [3] of the same compound?
A: active; positive

Q: And the mutagenic call [4]?
A: inactive; negative

Q: What about the mutagenic call [5] of the same compound?
A: inactive; negative

Q: Which mutagenic call (Test System: AMES SALMONELLA TYPHIMURIUM, Strain/Indicator: TA98, Metabolic Activation: HAMSTER, LIVER, S-9, AROCLOR 1254 (30%), Method: PREINCUBATION) does the source give for `O=[N+]([O-])c1ccc2c(c1)Cc1cccc([N+](=O)[O-])c1-2` here?
A: active; positive

Q: And the mutagenic call [1]?
A: active; positive

Q: And the mutagenic call (Test System: AMES SALMONELLA TYPHIMURIUM, Strain/Indicator: TA98, Metabolic Activation: RAT, LIVER, S-9, AROCLOR 1254 (30%), Method: PREINCUBATION)?
A: active; positive

Q: And the mutagenic call (Test System: AMES SALMONELLA TYPHIMURIUM, Strain/Indicator: TA100, Metabolic Activation: HAMSTER, LIVER, S-9, AROCLOR 1254 (30%), Method: PREINCUBATION)?
A: active; positive

Q: And the mutagenic call [6]?
A: active; positive

Q: And the mutagenic call (Test System: AMES SALMONELLA TYPHIMURIUM, Strain/Indicator: TA100, Metabolic Activation: RAT, LIVER, S-9, AROCLOR 1254 (30%), Method: PREINCUBATION)?
A: active; positive

Q: `CCc1cc2ccccc2c2ccc3c(c12)[C@@H]1O[C@@H]1[C@H](O)[C@H]3O` was tested. Which mutagenic call [6] did it give?
A: active; positive

From PubChem BioAssay AID1259407 (Chemical Carcinogenesis Research Information System (CCRIS), 2018)
